Experimental data published in ChEMBL document CHEMBL2086360, “α-Glucosidase inhibitory hydrolyzable tannins from Eugenia jambolana seeds” (J Nat Prod, 2012).

Experiment: Inhibition of yeast alpha-glucosidase using p-nitrophenyl-alpha-D-glucopyranoside as substrate compound pre-incubated for 10 mins before substrate addition measured after 5 mins by microplate reader
Design: species or system Saccharomyces cerevisiae

SMILES | IC50 [µM]
O=C(O[C@H]1[C@H](O)[C@@H](CO)OC(O)[C@@H]1OC(=O)c1cc(O)c(O)c(O)c1Oc1c(O)cc2c(=O)oc3c(O)c(O)cc4c(=O)oc1c2c34)c1cc(O)c(O)c(O)c1 (mixture of isomers) | 8.2
O=C(O[C@H]1[C@@H]2OC(=O)c3cc(O)c(O)c(O)c3-c3c(cc(O)c(O)c3O)C(=O)OC[C@H]2OC(O)[C@@H]1OC(=O)c1cc(O)c(O)c(O)c1Oc1cc2c(=O)oc3c(O)c(O)cc4oc(=O)c(c1O)c2c43)c1cc(O)c(O)c(O)c1 (stereo not given in full) [CORNUSSIN B] | 12.2
O=C(O[C@H]1[C@H](O)[C@@H](CO)OC(O)[C@@H]1OC(=O)c1cc(O)c(O)c(O)c1Oc1cc2c(=O)oc3c(O)c(O)cc4c(=O)oc(c1O)c2c34)c1cc(O)c(O)c(O)c1 (stereo not given in full) [OENOTHEIN C] | 75.1

The remaining compounds from weak to strong by IC50, led by results:

IC50 [µM] | SMILES
209 | C[C@H]1O[C@H](O[C@H]2[C@H](O)[C@@H](O)[C@@H](O[C@H]3[C@H](O)[C@@H](O)C(O)O[C@@H]3CO)O[C@@H]2CO)[C@H](O)[C@@H](O)[C@@H]1N[C@H]1C=C(CO)[C@@H](O)[C@H](O)[C@H]1O (stereo not given in full) [ACARBOSE]
146 | COc1cc2oc(-c3ccc(O)cc3)cc(=O)c2c(O)c1[C@@H]1O[C@H](CO)[C@@H](O)[C@H](O)[C@H]1O [SWERTISIN]
